Like-named read-outs stand apart in the source and are kept apart here. One block for each compound: values may come before it.
How the values were obtained:
[1] = In vitro biodegradation in Seronorm (release of Isopaque analysed by HPLC); format: in vitro ADME; conditions: pH 7.4, 37° C.
Description: (§1) The powdered product of Example 1 is suspended in Seronorm (5 mg/ml) (Seronorm is a trade mark of Nycomed AS) at pH 7.4 and agitated at 37° C. As a control the experiment is also performed in phosphate buffered saline (PBS) at pH 7.4. At different time points samples are taken from the supernatant after centrifugation of the vial (4,000 rpm, 10 minutes). The release of Isopaque (5-(N-acetylamino)-3-(N-acetyl-N-methylamino)-2,4,6-triiodobenzenecarboxylic acid) is analysed by HPLC. More than 50% of the substance is hydrolysed during 6 hours and after 24 hours 90% is hydrolysed.
(§2) The powdered product of Example 3 is suspended in Seronorm (0.5 mg/ml) at pH 7.4 and agitated at 37° C. As a control the experiment is also performed in phosphate buffered saline (PBS) at pit 7.4. At different time points samples are taken from the supernatant after centrifugation of the vial (4,000 rpm, 10 minutes). The release of Isopaque (5-(N-acetylamino)-3-(N-acetyl-N-methylamino)-2,4,6-triiodobenzenecarboxylic acid) is analysed by HPLC. 4.1% of the substance is hydrolysed during 24 hours. In PBS 0.12% is hydrolysed during 72 hours.
as §2, with “Example 10” for “Example 3”, “at pH” for “at pit”, “HPLC. […]” for “HPLC. 4.1% of the substance is hydrolysed during 24 hours.”, “PBS 58%” for “PBS 0.12%”
as §2, with “Example 4” for “Example 3”, “Seronorm at” for “Seronorm”, “mg/ml)” for “mg/ml) at”, “at pH” for “at pit”, “HPLC. […] In PBS 34% was” for “HPLC. 4.1% of the substance is”, “hours.” for “hours. In PBS 0.12% is hydrolysed during 72 hours.”

[2] = In vitro biodegradation, control in phosphate buffered saline (PBS); format: in vitro ADME; conditions: for degraded at 72 h: pH 7.4, 72 hours
Description: as §1, §2
as §2, with “Example 10” for “Example 3”, “at pH” for “at pit”, “HPLC. […]” for “HPLC. 4.1% of the substance is hydrolysed during 24 hours.”, “PBS 58%” for “PBS 0.12%”
as §2, with “Example 4” for “Example 3”, “Seronorm at” for “Seronorm”, “mg/ml)” for “mg/ml) at”, “at pH” for “at pit”, “HPLC. […] In PBS 34% was” for “HPLC. 4.1% of the substance is”, “hours.” for “hours. In PBS 0.12% is hydrolysed during 72 hours.”

[3] = read-out: substance hydrolysed in PBS

- metabolised at 2 h ([1]; 0.5 mg/ml, 2 hour incubation, read-out: substance hydrolysed): 29%
- hydrolysis ([1]; 0.5 mg/ml, after 24 hours): hydrolysis is complete
- degraded at 24 h ([2]; pH 7.4, 24 hours, read-out: substance hydrolysed in PBS): 34%
SMILES: CC(=O)Nc1c(I)c(C(=O)OC(C)OC(C)=O)c(I)c(N(C)C(C)=O)c1I (stereo not shown) [Example 4, 1-(Acetyloxy)ethyl 5-(N-acetylamino)-3-(N-acetyl-N-methylamino)-2,4,6-triiodobenzenecarboxylate]

- hydrolysis of substrate ([1]; 0.5 mg/ml, after 2 hours): completely hydrolysed
- degraded at 72 h [2, 3]: 58%
SMILES: CC(=O)Nc1c(I)c(C(=O)OCOC(C)=O)c(I)c(N(C)C(C)=O)c1I [Example 10, Acetyloxvmethyl 5-(N-acetylamino)-3-(N-acetyl-N-methylamino)-2,4,6-triiodobenzenecarboxylate]

- metabolised at 6 h ([1]; 5 mg/ml, 6 hours, read-out: substance hydrolysed): > 50%
- metabolised at 24 h ([1]; 5 mg/ml, read-out: substance hydrolysed): 90%
- hydrolysis in PBS ([2]; pH 7.4, control): no hydrolysis could be detected
SMILES: CC(=O)Nc1c(I)c(C(=O)OCOC(=O)C(C)(C)C)c(I)c(N(C)C(C)=O)c1I [Example 1, Pivaloyloxymethyl 5-(N-acetylamino)-3-(N-acetyl-N-methylamino)-2,4,6-triiodobenzenecarboxylate]

- metabolised at 24 h ([1]; 0.5 mg/ml, read-out: substance hydrolysed): 4.1%
- degraded at 72 h [2, 3]: 0.12%
SMILES: CC(=O)Nc1c(I)c(C(=O)OC(C)OC(=O)C(C)(C)C)c(I)c(N(C)C(C)=O)c1I (stereo not shown) [Example 3, 1-(Pivaloylyloxy)ethyl 5-(N-acetylamino)-3-(N-acetyl-N-methyl-amino)-2,4,6-triiodobenzenecarboxylate]

— US5354549A, “Iodinated esters” (Nycomed Imaging AS, priority 1987, dated 1994)
